Results taken from PubChem BioAssay AID330 (DTP/NCI, 2004).
Where “and” joins values, the source holds several entries; their conditions need not be identical. Equal entries are not always repeated. Toxic doses and inconclusive results are not listed.

Test system: P388 leukemia ip, CD2F1 mice, survival T/C
Test: NCI In Vivo Anticancer Drug Screen. Data for tumor model P388 Leukemia (intraperitoneal) in CD2F1 (CDF1) mice
Details: endpoint: median survival time, higher = longer survival
Procedure, shortened: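 Mice carrying the transplanted tumor received test compound or vehicle. Survival was recorded in each group, and the value is the treated-group measurement divided by that of the vehicle-treated control group.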

[1] = dose: 50.0 mg/kg/injection, schedule: Q01DX005 (ip), vehicle: saline with Tween-80
[2] = dose: 100.0 mg/kg/injection, schedule: Q01DX005 (ip), vehicle: saline with Tween-80
[3] = dose: 200.0 mg/kg/injection, schedule: Q01DX005 (ip), vehicle: saline with Tween-80
[4] = dose: 100.0 mg/kg/injection, schedule: Q01DX001 (ip), vehicle: saline with Tween-80
[5] = dose: 200.0 mg/kg/injection, schedule: Q01DX001 (ip), vehicle: saline with Tween-80
[6] = dose: 400.0 mg/kg/injection, schedule: Q01DX001 (ip), vehicle: saline with Tween-80
[7] = dose: 50.0 mg/kg/injection, schedule: Q01DX009 (ip), vehicle: Klucel (hydroxypropylcellulose) (HPC)
[8] = dose: 100.0 mg/kg/injection, schedule: Q01DX009 (ip), vehicle: Klucel (hydroxypropylcellulose) (HPC)
[9] = dose: 200.0 mg/kg/injection, schedule: Q01DX009 (ip), vehicle: Klucel (hydroxypropylcellulose) (HPC)
[10] = dose: 0.5 mg/kg/injection, schedule: Q01DX009 (ip), vehicle: saline with Tween-80
[11] = dose: 1.0 mg/kg/injection, schedule: Q01DX009 (ip), vehicle: saline with Tween-80
[12] = dose: 25.0 mg/kg/injection, schedule: Q01DX009 (ip), vehicle: Klucel (hydroxypropylcellulose) (HPC)
[13] = dose: 50.0 mg/kg/injection, schedule: Q01DX009 (ip), vehicle: saline
[14] = dose: 100.0 mg/kg/injection, schedule: Q01DX009 (ip), vehicle: saline
[15] = dose: 60.0 mg/kg/injection, schedule: Q01DX005 (ip), vehicle: saline with Tween-80
[16] = dose: 120.0 mg/kg/injection, schedule: Q01DX005 (ip), vehicle: saline with Tween-80
[17] = dose: 240.0 mg/kg/injection, schedule: Q01DX005 (ip), vehicle: saline with Tween-80

Which results are given for O=C1CC2OCC=C3CN4CCC56c7ccccc7N1C5C2C3CC46 (stereo not drawn) (tested in a mixture with another compound)?
T/C (dose: 0.38 mg/kg/injection, schedule: Q01DX009 (ip), vehicle: saline + alcohol): 100 % of control; T/C (dose: 0.75 mg/kg/injection, schedule: Q01DX009 (ip), vehicle: saline + alcohol): 109 % of control; T/C (dose: 1.5 mg/kg/injection, schedule: Q01DX009 (ip), vehicle: saline + alcohol): 95 % of control

Which T/C [1] does the source give for O=C(NN(CCO)CCO)c1ccccc1 here?
Its T/C is 100 % of control.

And the T/C [2]?
Its T/C is 105 % of control.

What about the T/C [3] of the same molecule?
The T/C was 100 % of control.

Cc1nnc(NC(=O)c2cc(=O)c3cc(Cl)ccc3o2)s1 was tested. Which T/C (dose: 50.0 mg/kg/injection, schedule: Q01DX005 (ip), vehicle: Klucel (hydroxypropylcellulose) (HPC)) did it give?
Its T/C is 100 % of control.

What about the T/C (dose: 100.0 mg/kg/injection, schedule: Q01DX005 (ip), vehicle: Klucel (hydroxypropylcellulose) (HPC)) of the same molecule?
Its T/C is 106 % of control.

And the T/C (dose: 200.0 mg/kg/injection, schedule: Q01DX005 (ip), vehicle: Klucel (hydroxypropylcellulose) (HPC))?
Its T/C is 100 % of control.

CCCn1c(Cl)c(/C=N\Nc2ccccc2[N+](=O)[O-])c2ccccc21 was tested. Which T/C [4] did it give?
The T/C was 92 % of control.

What about the T/C [5] of the same molecule?
Its T/C is 92 % of control.

And the T/C [6]?
Its T/C is 93 % of control.

Which results are given for CCCCCCCCCCCCCCCc1cccc(O)c1C(=O)O?
T/C (dose: 12.5 mg/kg/injection, schedule: Q01DX005 (ip), vehicle: distilled water + Tween-80): 106 % of control; T/C (dose: 20.0 mg/kg/injection, schedule: Q01DX009 (ip), vehicle: saline with Tween-80): 113 % of control; T/C (dose: 25.0 mg/kg/injection, schedule: Q01DX005 (ip), vehicle: distilled water + Tween-80): 102 % of control; T/C (dose: 40.0 mg/kg/injection, schedule: Q01DX009 (ip), vehicle: saline with Tween-80): 111 % of control; T/C (dose: 50.0 mg/kg/injection, schedule: Q01DX005 (ip), vehicle: distilled water + Tween-80): 107 % of control; T/C (dose: 80.0 mg/kg/injection, schedule: Q01DX009 (ip), vehicle: saline with Tween-80): 109 % of control; T/C (dose: 100.0 mg/kg/injection, schedule: Q01DX005 (ip), vehicle: distilled water + Tween-80): 117 % of control

What does the source list for CCCCC/C=C\C/C=C\CCCCCCCC(=O)O?
T/C [7]: 93 % of control; T/C [8]: 112 % of control; T/C [9]: 107 % of control; T/C (dose: 400.0 mg/kg/injection, schedule: Q01DX009 (ip), vehicle: Klucel (hydroxypropylcellulose) (HPC)): 101 % of control

Which results are given for CCCCCCC[n+]1ccccc1C#N?
T/C (dose: 12.5 mg/kg/injection, schedule: Q04DX003 (ip), vehicle: saline with Tween-80): 103 % of control and 107 % of control; T/C (dose: 25.0 mg/kg/injection, schedule: Q04DX003 (ip), vehicle: saline with Tween-80): 100 % of control and 103 % of control; T/C (dose: 50.0 mg/kg/injection, schedule: Q04DX003 (ip), vehicle: saline with Tween-80): 103 % of control; T/C (dose: 100.0 mg/kg/injection, schedule: Q04DX003 (ip), vehicle: saline with Tween-80): 100 % of control and 118 % of control; T/C (dose: 200.0 mg/kg/injection, schedule: Q04DX003 (ip), vehicle: saline with Tween-80): 99 % of control

What does the source list for CCCCC[CH2][Sn]([CH2]C)([CH2]C)[O]C(C)=O?
T/C [10]: 109 % of control; T/C [11]: 113 % of control; T/C (dose: 2.0 mg/kg/injection, schedule: Q01DX009 (ip), vehicle: saline with Tween-80): 109 % of control

How did the T/C (dose: 1.5 mg/kg/injection, schedule: Q01DX009 (ip), vehicle: Klucel (hydroxypropylcellulose) (HPC)) turn out when CC(=O)O[C@@H]1C[C@@](C)(C[C@H]2COC(=O)C2)[C@@H]2CC(=O)O[C@@H]3C[C@H]4C(C)=C[C@@H](O)C(=O)[C@]4(C)[C@@H]1[C@@]32C was run?
Its T/C is 99 % of control.

And the T/C (dose: 3.0 mg/kg/injection, schedule: Q01DX009 (ip), vehicle: Klucel (hydroxypropylcellulose) (HPC))?
Its T/C is 92 % of control.

What about the T/C (dose: 6.0 mg/kg/injection, schedule: Q01DX009 (ip), vehicle: Klucel (hydroxypropylcellulose) (HPC)) of the same molecule?
The T/C was 108 % of control.

What about the T/C (dose: 12.0 mg/kg/injection, schedule: Q01DX009 (ip), vehicle: Klucel (hydroxypropylcellulose) (HPC)) of the same molecule?
The T/C was 91 % of control.

With C/C(N=NC(=S)N1CC2CCC(CC2)C1)=C1\C=CC=CN1O as the molecule, how does the T/C [1] read?
The T/C was 105 % of control.

What about the T/C [2] of the same molecule?
Its T/C is 98 % of control.

And the T/C [3]?
Its T/C is 101 % of control.

What does the source list for CCOC(=O)c1no[n+]([O-])c1C(=O)OCC?
T/C (dose: 6.25 mg/kg/injection, schedule: Q01DX009 (ip), vehicle: Klucel (hydroxypropylcellulose) (HPC)): 103 % of control; T/C (dose: 12.5 mg/kg/injection, schedule: Q01DX009 (ip), vehicle: Klucel (hydroxypropylcellulose) (HPC)): 105 % of control; T/C [12]: 101 % of control; T/C [7]: 86 % of control

Which T/C (dose: 0.25 mg/kg/injection, schedule: Q01DX005 (ip), vehicle: DMSO) does the source give for COC(=O)[C@@]12OC[C@]34C([C@@H](O)C1O)[C@@]1(C)CC(=O)C(O)=C(C)C1C[C@H]3OC(=O)[C@H](OC(=O)c1ccc(Cl)cc1)[C@H]42 (stereo partly drawn) here?
Its T/C is 112 % of control.

And the T/C (dose: 0.5 mg/kg/injection, schedule: Q01DX005 (ip), vehicle: DMSO)?
Its T/C is 116 % of control.

And the T/C (dose: 1.0 mg/kg/injection, schedule: Q01DX005 (ip), vehicle: DMSO)?
The T/C was 113 % of control and 115 % of control.

What about the T/C (dose: 2.0 mg/kg/injection, schedule: Q01DX005 (ip), vehicle: DMSO) of the same molecule?
Its T/C is 109 % of control and 118 % of control.

And the T/C (dose: 4.0 mg/kg/injection, schedule: Q01DX005 (ip), vehicle: DMSO)?
Its T/C is 109 % of control.

And the T/C (dose: 8.0 mg/kg/injection, schedule: Q01DX005 (ip), vehicle: DMSO)?
The T/C was 110 % of control and 115 % of control.

What about the T/C (dose: 16.0 mg/kg/injection, schedule: Q01DX005 (ip), vehicle: DMSO) of the same molecule?
The T/C was 112 % of control.

Which T/C (dose: 6.25 mg/kg/injection, schedule: Q01DX009 (ip), vehicle: saline with Tween-80) does the source give for COC(=O)/C=C\C=C(\CBr)C(=O)OC here?
Its T/C is 91 % of control.

And the T/C (dose: 6.25 mg/kg/injection, schedule: Q04DX003 (ip), vehicle: saline)?
The T/C was 110 % of control.

And the T/C (dose: 12.5 mg/kg/injection, schedule: Q01DX009 (ip), vehicle: saline with Tween-80)?
The T/C was 95 % of control.

And the T/C (dose: 12.5 mg/kg/injection, schedule: Q04DX003 (ip), vehicle: saline)?
Its T/C is 110 % of control.

And the T/C (dose: 25.0 mg/kg/injection, schedule: Q01DX009 (ip), vehicle: saline with Tween-80)?
The T/C was 91 % of control.

What about the T/C (dose: 25.0 mg/kg/injection, schedule: Q04DX003 (ip), vehicle: saline) of the same molecule?
The T/C was 110 % of control.

What does the source list for Clc1cccc(N(C2=NCCS2)C2=NCCS2)c1?
T/C [12]: 107 % of control; T/C [7]: 104 % of control; T/C [8]: 107 % of control; T/C [9]: 104 % of control

Which results are given for CCCCCCCCCC#CC(=O)OC?
T/C [13]: 105 % of control; T/C [14]: 105 % of control; T/C (dose: 200.0 mg/kg/injection, schedule: Q01DX009 (ip), vehicle: saline): 105 % of control

What does the source list for COc1cc2c(c(OC)c1OC)-c1ccc(SC)c(=O)cc1[C@@H](NC(=O)NCCCl)CC2?
T/C (dose: 1.5 mg/kg/injection, schedule: Q01DX009 (ip), vehicle: water): 110 % of control; T/C (dose: 6.0 mg/kg/injection, schedule: Q01DX009 (ip), vehicle: water): 150 % of control; T/C (dose: 12.0 mg/kg/injection, schedule: Q01DX009 (ip), vehicle: water): 155 % of control; T/C (dose: 13.5 mg/kg/injection, schedule: Q01DX009 (ip), vehicle: water): 150 % of control and 163 % of control

How did the T/C [15] turn out when O=c1c2c(c(=O)c(=O)c1=O)Nc1ccccc1N2 was run?
Its T/C is 100 % of control.

And the T/C [16]?
The T/C was 101 % of control.

What about the T/C [17] of the same molecule?
The T/C was 107 % of control.

For Cc1ccc(S(=O)(=O)Nc2ccc3nc(C)oc3c2)cc1, which T/C [4] is on record?
The T/C was 100 % of control.

What about the T/C [5] of the same molecule?
The T/C was 100 % of control.

What about the T/C [6] of the same molecule?
The T/C was 100 % of control.

Which results are given for CCCCCCCCCCCCCCNC(=O)C[N+](C)(C)Cc1ccccc1?
T/C (dose: 0.25 mg/kg/injection, schedule: Q01DX009 (ip), vehicle: saline with Tween-80): 100 % of control; T/C [10]: 100 % of control; T/C [11]: 100 % of control

Which results are given for O=S(=O)(Cc1ccccc1)/N=C/c1ccccc1?
T/C (dose: 50.0 mg/kg/injection, schedule: Q01DX009 (ip), vehicle: saline with Tween-80): 103 % of control and 105 % of control; T/C (dose: 100.0 mg/kg/injection, schedule: Q01DX009 (ip), vehicle: saline with Tween-80): 99 % of control and 105 % of control; T/C (dose: 200.0 mg/kg/injection, schedule: Q01DX009 (ip), vehicle: saline with Tween-80): 107 % of control and 123 % of control

Which results are given for CC(=O)OC1CC[N+](C)(Cc2ccccc2)C1 (stereo not drawn)?
T/C [13]: 107 % of control; T/C [14]: 91 % of control

With CN(O)C(=O)CCCCCCCCC(=O)N(C)O as the molecule, how does the T/C [15] read?
The T/C was 103 % of control.

What about the T/C [16] of the same molecule?
The T/C was 105 % of control.

And the T/C [17]?
Its T/C is 114 % of control.
